According to publication PMC9065575, “Synthesis, computational studies, antimycobacterial and antibacterial properties of pyrazinoic acid–isoniazid hybrid conjugates” (RSC Advances, 2019):
Values joined by “and” are separate entries in the source; they are usually repeats but may differ in a detail not shown here. Equal entries are not always repeated. Where two headings read alike, the source gives them in different places.

Legend:
Enterococcus faecalis = assay: Aerobic antibacterial MIC, standard dilution technique; assay type: cell-based; conditions: clinical isolate, read-out: Minimum inhibitory concentration (MIC) Enterococcus faecalis
Description: (§1) Antibacterial properties were investigated for the synthesized compounds against a variety of Gram-positive (Staphylococcus aureus, Enterococcus faecalis) and Gram-negative (Klebsiella pneumonia, Proteus vulgaris, Pseudomonas aeruginosa) clinical isolate bacteria utilizing the standard technique.[21]

Klebsiella pneumoniae = assay: as above; assay type: cell-based; conditions: clinical isolate, read-out: Minimum inhibitory concentration (MIC) Klebsiella pneumoniae
Description: as §1

Pseudomonas aeruginosa = assay: as above; assay type: cell-based; conditions: clinical isolate, read-out: Minimum inhibitory concentration (MIC) Pseudomonas aeruginosa
Description: as §1

Proteus vulgaris = assay: as above; assay type: cell-based; conditions: clinical isolate, read-out: Minimum inhibitory concentration (MIC) Proteus vulgaris
Description: as §1

Staphylococcus aureus = assay: as above; assay type: cell-based; conditions: clinical isolate, read-out: Minimum inhibitory concentration (MIC) Staphylococcus aureus
Description: as §1

Mycobacterium bovis = assay: microbe, parasite or virus in culture; assay type: cell-based; conditions: Mycobacterium tuberculosis variant bovis, read-out: Minimum inhibitory concentration (MIC) M. bovis
Mycobacterium fortuitum = assay: microbe, parasite or virus in culture; assay type: cell-based; conditions: Mycolicibacterium fortuitum
[1] = tested on: M. tuberculosis Erdman strain expressing luciferase; assay: microbe, parasite or virus in culture; assay type: cell-based, Mycobacterium tuberculosis; conditions: 30 μg mL^−1, pH 7.0, 7 days, vs untreated controls
Mycobacterium marinum = assay: microbe, parasite or virus in culture; assay type: cell-based; conditions: clinical isolate, read-out: Minimum inhibitory concentration (MIC) M. marinum
[2] = Enterococcus faecalis, value in parentheses
[3] = clinical isolate, observed MIC, read-out: Minimum inhibitory concentration (MIC) M. fortuitum
[4] = clinical isolate, read-out: Minimum inhibitory concentration (MIC) M. fortuitum

Compound	MIC (Enterococcus faecalis; Enterococcus faecalis) [µg/mL]	MIC (Enterococcus faecalis; [2]) [µM]	MIC (Klebsiella pneumoniae) [µg/mL]	MIC (Klebsiella pneumoniae; value in parentheses) [µM]	MIC (Pseudomonas aeruginosa) [µg/mL]	MIC (Pseudomonas aeruginosa; value in parentheses) [µM]	MIC (Proteus vulgaris) [µg/mL]	MIC (Proteus vulgaris; value in parentheses) [µM]	MIC (Staphylococcus aureus) [µg/mL]	MIC (Staphylococcus aureus; value in parentheses) [µM]	MIC (Enterococcus faecalis; value in parentheses) [µM]	MIC (Mycobacterium bovis)	MIC (Mycobacterium fortuitum; [3]) [µM]	MIC (Mycobacterium fortuitum; [4]) [µg/mL]	inhibition at 30 µg/mL ([1]; Mycobacterium tuberculosis, ERDMAN, 168 h, read-out: Observed % growth inhibition at 30 µg/mL) [%]	MIC (Mycobacterium marinum; observed MIC) [µM]	MIC (Mycobacterium marinum) [µg/mL]	MIC (Mycobacterium fortuitum; M. fortuitum, observed values listed with the BMLR-QSAR model, read-out: Observed MIC (Table S6)) [µM]	Observed % growth inhibition at 30 µg/mL [1]
NC(=O)c1cnccn1 [C00001]	0.12	0.97	64	520	4	32.5	8	65	1020	8320									
NNC(=O)c1ccncc1 [C00002]	16	117	8	58.3	64	467	64	467	64	467									
CC(C)C[C@H](NC(=O)c1cnccn1)C(=O)O [C00004]	0.03	0.13	64	270	0.03	0.13	8	33.7	1020	4320									
CC(C)[C@H](NC(=O)c1cnccn1)C(=O)O [C00005]	0.03		0.03	0.13	4	17.9	0.06	0.27	512	2290									
CC[C@@H](C)[C@H](NC(=O)c1cnccn1)C(=O)O [C00006]	0.03	0.13	8	33.7	0.12	0.51	0.06	0.25	16	67.4									
CSCC[C@H](NC(=O)c1cnccn1)C(=O)O [C00007]	0.03	0.12	64	251	0.12	0.47	0.06	0.24	16	62.7									
O=C(N[C@@H](Cc1ccccc1)C(=O)O)c1cnccn1 [C00008]	0.12	0.44	64	236	0.12	0.44	0.06	0.22	64	236									
O=C(NC(Cc1ccccc1)C(=O)O)c1cnccn1 (stereo not shown) [C00009]	0.03	0.11	16	59	16	59	0.06	0.22	16	59									
O=C(N[C@@H](Cc1c[nH]c2ccccc12)C(=O)O)c1cnccn1 [C00010]	0.03	0.1	64	206	0.12	0.39	0.06	0.19	64	206									
CC(C)C[C@H](NC(=O)c1cnccn1)C(=O)NNC(=O)c1ccncc1 [C00011]	0.03	0.08	4	11.2	64	180	0.06	0.17	2	5.61									
CC(C)[C@H](NC(=O)c1cnccn1)C(=O)NNC(=O)c1ccncc1 [C00012]	0.12		8	23.4	0.12	0.35	0.06	0.18	16	46.7	0.35								
CC[C@H](C)[C@H](NC(=O)c1cnccn1)C(=O)NNC(=O)c1ccncc1 [C00013]	0.03	0.08	8	22.4	0.12	0.34	0.06	0.17	16	44.9									
CSCC[C@H](NC(=O)c1cnccn1)C(=O)NNC(=O)c1ccncc1 [C00014]	0.03	0.08	4	10.7	0.12	0.32	0.06	0.16	64	171									
O=C(NNC(=O)[C@H](Cc1ccccc1)NC(=O)c1cnccn1)c1ccncc1 [C00015]	0.12	0.31	8	20.5	0.12	0.31	0.06	0.15	16	41									
O=C(NNC(=O)C(Cc1ccccc1)NC(=O)c1cnccn1)c1ccncc1 (stereo not shown) [C00016]	0.03	0.08	8	20.5	32	82	16	41	16	41									
O=C(NNC(=O)[C@H](Cc1c[nH]c2ccccc12)NC(=O)c1cnccn1)c1ccncc1 [C00017]	0.03	0.07	4	9.31	0.12	0.28	0.06	0.14	16	37.3									
O=C(NNC(=O)c1cnccn1)c1ccncc1 [C00018]	16		8		0.03	0.12	64		8										
O=C(NNC(=O)c1ccncc1)c1ccncc1 [C00019]	16		4		0.06	0.25	0.03		4										
NNC(=O)c1ccncc1 [INH, isoniazid]												146 µM and 20 µg/mL	146	20	> 70	72.9	10		
NC(=O)c1cnccn1 [PZA, pyrazinamide, reference compound]												162 µM and 20 µg/mL	81.2	10		81.2	10	81200	not observed
